# From patent US20190142971A1, “FORMULATION AND DELIVERY OF MODIFIED NUCLEOSIDE, NUCLEOTIDE, AND NUCLEIC ACID COMPOSITIONS” (ModernaTX, Inc., priority 2013, published 2019)
# Like-named read-outs stand apart in the source and are kept apart here.
# B1: G-CSF: modified mRNA encoding human G-CSF, SEQ ID NO: 4, Cap1, fully modified with 5-methylcytosine and pseudouridine; LNP-formulated in Examples 16-22 (nucleic acid)
# chain: GGGAAAUAAGAGAGAAAAGAAGAGUAAGAAGAAAUAUAAGAGCCACCAUGGCCGGUCCCGCGACCCAAAGCCCCAUGAAACUUAUGGCCCUGCAGUUGCUGCUUUGGCACUCGGCCCUCUGGACAGUCCAAGAAGCGACUCCUCUCGGACCUGCCUCAUCGUUGCCGCAGUCAUUCCUUUUGAAGUGUCUGGAGCAGGUGCGAAAGAUUCAGGGCGAUGGAGCCGCACUCCAAGAGAAGCUCUGCGCGACAUACAAACUUUGCCAUCCCGAGGAGCUCGUACUGCUCGGGCACAGCUUGGGGAUUCCCUGGGCUCCUCUCUCGUCCUGUCCGUCGCAGGCUUUGCAGUUGGCAGGGUGCCUUUCCCAGCUCCACUCCGGUUUGUUCUUGUAUCAGGGACUGCUGCAAGCCCUUGAGGGAAUCUCGCCAGAAUUGGGCCCGACGCUGGACACGUUGCAGCUCGACGUGGCGGAUUUCGCAACAACCAUCUGGCAGCAGAUGGAGGAACUGGGGAUGGCACCCGCGCUGCAGCCCACGCAGGGGGCAAUGCCGGCCUUUGCGUCCGCGUUUCAGCGCAGGGCGGGUGGAGUCCUCGUAGCGAGCCACCUUCAAUCAUUUUUGGAAGUCUCGUACCGGGUGCUGAGACAUCUUGCGCAGCCGUGAAGCGCUGCCUUCUGCGGGGCUUGCCUUCUGGCCAUGCCCUUCUUCUCUCCCUUGCACCUGUACCUCUUGGUCUUUGAAUAAAGCCUGAGUAGGAAG
# modifications: Cap1, 5-methylcytosine, pseudouridine
# How the values were obtained:
# Sprague-Dawley rats = assay: Example 71: toxicity study of luciferase mRNA in rats: weight, electrolytes, hematology, WBC, serum chemistry, liver proteins (Tables 104-110); format: in vivo; settings: for Mean weight Gain / Weight Gain: 7 days after administration; for ALP / ALT / AST / Albumin / Basophils (BASO %) / Bicarbonate / CPK / Calcium / Chloride / Eosinophils (EOS %) / Globulin / HCT / HGB / Lymphocytes (LYM %) / MCH / MCV / Monocytes (MON %) / Neutrophil (NEU-SEG %) / Phosphorus / Potassium / RBC / Sodium / Total Protein / WBC / MCHC: after 7 days
# Experimental: A control group were administered the formulation buffer (F. Buffer). After 7 days the rats were sacrificed.
# The rats were weighed before the administration of mRNA and 7 days after administration. […] Each group analyzed consumed about the same amount of food over the course of the study.
# After 7 days the rats were sacrificed and samples were taken to determine electrolytes. The calcium, bicarbonate, potassium, phosphorus, chloride and sodium levels in each group were analyzed.
# After 7 days the rats were sacrificed and samples were taken to determine hematology levels. The red blood cell (RBC), hematocrit (HGT), mean corpuscular volume (MCV), hemoglobin (HGB), mean corpuscular hemoglobin (MCH) and mean corpuscular hemoglobin concentration (MCHC) was determined for each group.
# After 7 days the rats were sacrificed and samples were taken to determine white blood cell count. Neutrophils (percent segmented neutrophils), monocytes, basophils, lymphocytes, eosinophil and white blood cell (WBC) was determined for each group.
# After 7 days the rats were sacrificed and samples were taken to determine serum chemistry. The alkaline phosphatase (ALP), aspartate transaminase (AST), alanine transaminase (ALT) and creatine phosphokinase (CPK) was determined for each group.
# After 7 days the rats were sacrificed and samples were taken to determine liver protein levels. The level of albumin, globulin and total protein was determined for each group.
# Doses as high as 30 times the effective dose appear to be safe from this analysis.
# BJ fibroblasts = settings: for IFN-beta / IL-6: 250 ng transfected daily for 5 days
molecule,measurement,setting,value
"Luciferase: luciferase mRNA, SEQ ID NO: 14, Cap1, fully modified with 5-methylcytosine and pseudouridine",Mean weight Gain,Sprague-Dawley rats; 100 ug,16.875 g
same,Weight Gain,Sprague-Dawley rats; 100 ug,6.5%
same,ALP,Sprague-Dawley rats; 100 ug,144.4 IU/L
same,ALT,Sprague-Dawley rats; 100 ug,60.8 IU/L
same,AST,Sprague-Dawley rats; 100 ug,198.3 IU/L
same,Albumin,Sprague-Dawley rats; 100 ug,3.3 g/dL
same,Basophils (BASO %),Sprague-Dawley rats; 100 ug,0.4%
same,Bicarbonate,Sprague-Dawley rats; 100 ug,19.9 mEg/L
same,CPK,Sprague-Dawley rats; 100 ug,488.1 IU/L
same,Calcium,Sprague-Dawley rats; 100 ug,9.8 mg/dL
same,Chloride,Sprague-Dawley rats; 100 ug,101.0 mEg/L
same,Eosinophils (EOS %),Sprague-Dawley rats; 100 ug,1.3%
same,Globulin,Sprague-Dawley rats; 100 ug,2.5 g/dL
same,HCT,Sprague-Dawley rats; 100 ug,44.1%
same,HGB,Sprague-Dawley rats; 100 ug,14.7 g/dL
same,Lymphocytes (LYM %),Sprague-Dawley rats; 100 ug,85.9%
same,MCH,Sprague-Dawley rats; 100 ug,19.5 pg
same,MCV,Sprague-Dawley rats; 100 ug,58.7 fL
same,Monocytes (MON %),Sprague-Dawley rats; 100 ug,2.0%
same,Neutrophil (NEU-SEG %),Sprague-Dawley rats; 100 ug,10.6%
same,Phosphorus,Sprague-Dawley rats; 100 ug,8.3 mg/dL
same,Potassium,Sprague-Dawley rats; 100 ug,4.7 mEg/L
same,RBC,Sprague-Dawley rats; 100 ug,7.5 Million/uL
same,Sodium,Sprague-Dawley rats; 100 ug,139.6 mEg/L
same,Total Protein,Sprague-Dawley rats; 100 ug,5.8 g/dL
same,WBC,Sprague-Dawley rats; 100 ug,14 Thous./uL
same,Mean weight Gain,Sprague-Dawley rats; 300 ug,22.125 g
same,Weight Gain,Sprague-Dawley rats; 300 ug,8.3%
same,ALP,Sprague-Dawley rats; 300 ug,169.5 IU/L
same,ALT,Sprague-Dawley rats; 300 ug,49.3 IU/L
same,AST,Sprague-Dawley rats; 300 ug,200.3 IU/L
same,Albumin,Sprague-Dawley rats; 300 ug,3.2 g/dL
same,Basophils (BASO %),Sprague-Dawley rats; 300 ug,0.4%
same,Bicarbonate,Sprague-Dawley rats; 300 ug,23.3 mEg/L
same,CPK,Sprague-Dawley rats; 300 ug,968.3 IU/L
same,Calcium,Sprague-Dawley rats; 300 ug,9.8 mg/dL
same,Chloride,Sprague-Dawley rats; 300 ug,100.5 mEg/L
same,Eosinophils (EOS %),Sprague-Dawley rats; 300 ug,1.0%
same,Globulin,Sprague-Dawley rats; 300 ug,2.4 g/dL
same,HCT,Sprague-Dawley rats; 300 ug,43.5%
same,HGB,Sprague-Dawley rats; 300 ug,14.5 g/dL
same,Lymphocytes (LYM %),Sprague-Dawley rats; 300 ug,83.6%
same,MCH,Sprague-Dawley rats; 300 ug,19.8 pg
same,MCHC,Sprague-Dawley rats; 300 ug,33.3 g/dL
same,MCV,Sprague-Dawley rats; 300 ug,59.6 fL
same,Monocytes (MON %),Sprague-Dawley rats; 300 ug,2.8%
same,Neutrophil (NEU-SEG %),Sprague-Dawley rats; 300 ug,12.0%
same,Phosphorus,Sprague-Dawley rats; 300 ug,8.2 mg/dL
same,Potassium,Sprague-Dawley rats; 300 ug,4.4 mEg/L
same,RBC,Sprague-Dawley rats; 300 ug,7.3 Million/uL
same,Sodium,Sprague-Dawley rats; 300 ug,139.6 mEg/L
same,Total Protein,Sprague-Dawley rats; 300 ug,5.6 g/dL
same,WBC,Sprague-Dawley rats; 300 ug,10.2 Thous./uL
same,Mean weight Gain,Sprague-Dawley rats; 1000 ug,19 g
same,Weight Gain,Sprague-Dawley rats; 1000 ug,6.95%
same,ALP,Sprague-Dawley rats; 1000 ug,150.5 IU/L
same,ALT,Sprague-Dawley rats; 1000 ug,51.5 IU/L
same,AST,Sprague-Dawley rats; 1000 ug,189.8 IU/L
same,Albumin,Sprague-Dawley rats; 1000 ug,3.2 g/dL
same,Bicarbonate,Sprague-Dawley rats; 1000 ug,22.5 mEg/L
same,CPK,Sprague-Dawley rats; 1000 ug,744 IU/L
same,Calcium,Sprague-Dawley rats; 1000 ug,10.6 mg/dL
same,Chloride,Sprague-Dawley rats; 1000 ug,101.0 mEg/L
same,Eosinophils (EOS %),Sprague-Dawley rats; 1000 ug,1.5%
same,Globulin,Sprague-Dawley rats; 1000 ug,2.7 g/dL
same,HCT,Sprague-Dawley rats; 1000 ug,42.5%
same,HGB,Sprague-Dawley rats; 1000 ug,14.2 g/dL
same,Lymphocytes (LYM %),Sprague-Dawley rats; 1000 ug,83.0%
same,MCH,Sprague-Dawley rats; 1000 ug,19.55 pg
same,MCHC,Sprague-Dawley rats; 1000 ug,33.3 g/dL
same,MCV,Sprague-Dawley rats; 1000 ug,58.8 fL
same,Monocytes (MON %),Sprague-Dawley rats; 1000 ug,2.3%
same,Neutrophil (NEU-SEG %),Sprague-Dawley rats; 1000 ug,12.8%
same,Phosphorus,Sprague-Dawley rats; 1000 ug,9.1 mg/dL
same,Potassium,Sprague-Dawley rats; 1000 ug,5.2 mEg/L
same,RBC,Sprague-Dawley rats; 1000 ug,7.2 Million/uL
same,Sodium,Sprague-Dawley rats; 1000 ug,138.8 mEg/L
same,Total Protein,Sprague-Dawley rats; 1000 ug,5.9 g/dL
same,WBC,Sprague-Dawley rats; 1000 ug,10.7 Thous./uL
same,Mean weight Gain,Sprague-Dawley rats; 3 × 1000 ug,20.375 g
same,Weight Gain,Sprague-Dawley rats; 3 × 1000 ug,7.7%
same,ALP,Sprague-Dawley rats; 3 × 1000 ug,152.0 IU/L
same,ALT,Sprague-Dawley rats; 3 × 1000 ug,45.9 IU/L
same,Albumin,Sprague-Dawley rats; 3 × 1000 ug,3.4 g/dL
same,Basophils (BASO %),Sprague-Dawley rats; 3 × 1000 ug,0.1%
same,Bicarbonate,Sprague-Dawley rats; 3 × 1000 ug,22.6 mEg/L
same,CPK,Sprague-Dawley rats; 3 × 1000 ug,481.1 IU/L
same,Calcium,Sprague-Dawley rats; 3 × 1000 ug,10.2 mg/dL
same,Chloride,Sprague-Dawley rats; 3 × 1000 ug,100.4 mEg/L
same,Eosinophils (EOS %),Sprague-Dawley rats; 3 × 1000 ug,0.9%
same,Globulin,Sprague-Dawley rats; 3 × 1000 ug,2.6 g/dL
same,HCT,Sprague-Dawley rats; 3 × 1000 ug,43.5%
same,HGB,Sprague-Dawley rats; 3 × 1000 ug,14.4 g/dL
same,Lymphocytes (LYM %),Sprague-Dawley rats; 3 × 1000 ug,85.5%
same,MCH,Sprague-Dawley rats; 3 × 1000 ug,20.0 pg
same,MCHC,Sprague-Dawley rats; 3 × 1000 ug,33.1 g/dL
same,MCV,Sprague-Dawley rats; 3 × 1000 ug,60.6 fL
same,Monocytes (MON %),Sprague-Dawley rats; 3 × 1000 ug,2.0%
same,Neutrophil (NEU-SEG %),Sprague-Dawley rats; 3 × 1000 ug,11.6%
same,Phosphorus,Sprague-Dawley rats; 3 × 1000 ug,8.11 mg/dL
same,Potassium,Sprague-Dawley rats; 3 × 1000 ug,4.6 mEg/L
same,RBC,Sprague-Dawley rats; 3 × 1000 ug,7.2 Million/uL
same,Sodium,Sprague-Dawley rats; 3 × 1000 ug,138.8 mEg/L
same,Total Protein,Sprague-Dawley rats; 3 × 1000 ug,6.0 g/dL
same,WBC,Sprague-Dawley rats; 3 × 1000 ug,10.9 Thous./uL
same,adverse effects of high doses,Sprague-Dawley rats; 7 days,do not result in adverse effects
same,blood count and clotting factors,Sprague-Dawley rats; 7 days,no change in blood count or blood clotting factors
same,electrolytes,Sprague-Dawley rats; 7 days,no change in electrolytes
same,liver enzyme and liver protein production,Sprague-Dawley rats; 7 days,no change seen in liver enzyme or liver protein production
same,weight gain and behaviour,Sprague-Dawley rats; 7 days,All animals continued to gain weight and behave normally
same,white blood cells,Sprague-Dawley rats; 7 days,no increase in white blood cells
same,dose that appears to be safe,"Sprague-Dawley rats; rat, in vivo",30 times the effective dose
same,histopathology at the site of injection,"Sprague-Dawley rats; rat, in vivo",only minimal inflammation at the site of injection
B1,"time to cytokine response (IFN-beta, IL-6)",BJ fibroblasts,2 to 3 days
same,IFN-beta,BJ fibroblasts; 6 hours,0 pg/mL
same,IL-6,BJ fibroblasts; 6 hours,3396 pg/mL
same,IFN-beta,BJ fibroblasts; Day 1,38 pg/mL
same,IL-6,BJ fibroblasts; Day 1,3870 pg/mL
same,IFN-beta,BJ fibroblasts; Day 2,1125 pg/mL
same,IL-6,BJ fibroblasts; Day 2,16341 pg/mL
same,IFN-beta,BJ fibroblasts; Day 3,100 pg/mL
same,IL-6,BJ fibroblasts; Day 3,25983 pg/mL
same,IFN-beta,BJ fibroblasts; Day 4,75 pg/mL
same,IL-6,BJ fibroblasts; Day 4,18922 pg/mL
same,IFN-beta,BJ fibroblasts; Day 5,213 pg/mL
same,IL-6,BJ fibroblasts; Day 5,15928 pg/mL
